According to patent US12090184B2, “Traditional Chinese medicine composition for treating dermatophytosis and bromhidrosis and application thereof” (JINGCHU UNIVERSITY OF TECHNOLOGY, priority 2019, dated 2024):

What was measured:
Assay type in all cases: cell-based
[1] = test system: Aspergillus fumigatus ATCC-MYA-3626; test: in vitro anti-fungal test, 80% MIC (CLSI M-38P)
Description: (§1) 1. The present disclosure conducts an in vitro anti-fungal test on the composition extracts in Examples 1 to 3, and the single radix sophorae flavescentis alkaloid and single peristrophe japonica extracts prepared in Example 3. The cell strains used in the test are all ATCC standard strains provided by the Fungi Center of the Medical Microbial (Virus) Species Collection and Management Center of the Ministry of Health, which includes as follows, Aspergillus: Aspergillus fumigatus Strain Number: CMCCC(F) A1g (ATCC-MYA-3626); Candida: Candida albicans Strain Number: CMCCC (F) C.1L (ATCC90028); Trichophyton: Trichophyton rubrum Strain Number: CMCCC(F)T.1h (ATCC-MYA-4438); Trichophyton mentagrophytes Strain Number: CMCCC(F)T.5e (ATCC-MYA-4439).
(§2) 2. The specific experimental methods are carried out with reference to the standard methods of yeast M-27A3 and filamentous fungi M-38P issued by the Clinical and Laboratory Standards Institute (US, CLSI) of the United States.
(§3) Before the experiment, after activating the experimental bacteria, yeast are cultured on Sabouraud Dextrose Agar(SDA) medium at 30° C. for 48 hours; filamentous fungi are cultured on potato dextrose agar (PDA) medium at 26° C. for 7 days to 10 days. A suspension is prepared with sterile normal saline, the suspension is counted by a hemocytometer, and is dilute with RMPI-1640 liquid medium containing 2% glucose in multiple amounts to Candida albicans 1.0×10^3 cfu/mL; the other three filamentous fungi are prepared into 2.5×10^4 cfu/mL. 0.1 mL of bacterial solutions are taken respectively, the culture medium containing the compositions prepared in Examples 1 to 3 and the same doses of the radix sophorae flavescentis alkaloids and the peristrophe japonica extracts prepared in Example 3 are added into each well, wherein the well 11 is a vehicle control, the well 12 is a medium control. 0.1 mL of the diluted solvent is added into the vehicle control well, and 0.1 mL of the distilled water is added into the control well. […]

[2] = test system: Trichophyton mentagrophytes ATCC-MYA-4439; test: in vitro anti-fungal test, 80% MIC (CLSI M-38P)
Description: as §1, §2, §3

[3] = test system: Trichophyton rubrum ATCC-MYA-4438; test: in vitro anti-fungal test, 80% MIC (CLSI M-38P)
Description: as §1, §2, §3

[4] = test system: Candida albicans ATCC90028; test: in vitro anti-fungal test, 80% MIC (CLSI M-27A3)
Description: as §1
2. […]
Before the experiment, after activating the experimental bacteria, yeast are cultured on Sabouraud Dextrose Agar(SDA) medium at 30° C. for 48 hours; filamentous fungi are cultured on potato dextrose agar (PDA) medium at 26° C. for 7 days to 10 days. A suspension is prepared with sterile normal saline, the suspension is counted by a hemocytometer, and is dilute with RMPI-1640 liquid medium containing 2% glucose in multiple amounts to Candida albicans 1.0×10^3 cfu/mL; the other three filamentous fungi are prepared into 2.5×10^4 cfu/mL. […]

CCC(C)n1ncn(-c2ccc(N3CCN(c4ccc(OCC5COC(Cn6cncn6)(c6ccc(Cl)cc6Cl)O5)cc4)CC3)cc2)c1=O (stereo not shown) [Itraconazole]
80% MIC [1]: 4.2
80% MIC [2]: 5.8
80% MIC [3]: 5.6
80% MIC [4]: 3.8
